# Laboratory results taken from ChEMBL document CHEMBL2073940, “Vinblastine and sulfinpyrazone export by the multidrug resistance protein MRP2 is associated with glutathione export” (Br J Cancer, 2000).
# Assays:
# Assay type in all cases: functional, cell-based
# Conditions in all cases: dog, mdck-ii
# [1] = molecular target: T1, Multidrug resistance-associated protein 1 (Homo sapiens, UniProt P33527); assay: TP_TRANSPORTER: inhibition of Glutathione efflux (Benzbromarone: 25 uM) in MRP1-expressing MDCKII cells
# T1 sequence (P33527 whole entry): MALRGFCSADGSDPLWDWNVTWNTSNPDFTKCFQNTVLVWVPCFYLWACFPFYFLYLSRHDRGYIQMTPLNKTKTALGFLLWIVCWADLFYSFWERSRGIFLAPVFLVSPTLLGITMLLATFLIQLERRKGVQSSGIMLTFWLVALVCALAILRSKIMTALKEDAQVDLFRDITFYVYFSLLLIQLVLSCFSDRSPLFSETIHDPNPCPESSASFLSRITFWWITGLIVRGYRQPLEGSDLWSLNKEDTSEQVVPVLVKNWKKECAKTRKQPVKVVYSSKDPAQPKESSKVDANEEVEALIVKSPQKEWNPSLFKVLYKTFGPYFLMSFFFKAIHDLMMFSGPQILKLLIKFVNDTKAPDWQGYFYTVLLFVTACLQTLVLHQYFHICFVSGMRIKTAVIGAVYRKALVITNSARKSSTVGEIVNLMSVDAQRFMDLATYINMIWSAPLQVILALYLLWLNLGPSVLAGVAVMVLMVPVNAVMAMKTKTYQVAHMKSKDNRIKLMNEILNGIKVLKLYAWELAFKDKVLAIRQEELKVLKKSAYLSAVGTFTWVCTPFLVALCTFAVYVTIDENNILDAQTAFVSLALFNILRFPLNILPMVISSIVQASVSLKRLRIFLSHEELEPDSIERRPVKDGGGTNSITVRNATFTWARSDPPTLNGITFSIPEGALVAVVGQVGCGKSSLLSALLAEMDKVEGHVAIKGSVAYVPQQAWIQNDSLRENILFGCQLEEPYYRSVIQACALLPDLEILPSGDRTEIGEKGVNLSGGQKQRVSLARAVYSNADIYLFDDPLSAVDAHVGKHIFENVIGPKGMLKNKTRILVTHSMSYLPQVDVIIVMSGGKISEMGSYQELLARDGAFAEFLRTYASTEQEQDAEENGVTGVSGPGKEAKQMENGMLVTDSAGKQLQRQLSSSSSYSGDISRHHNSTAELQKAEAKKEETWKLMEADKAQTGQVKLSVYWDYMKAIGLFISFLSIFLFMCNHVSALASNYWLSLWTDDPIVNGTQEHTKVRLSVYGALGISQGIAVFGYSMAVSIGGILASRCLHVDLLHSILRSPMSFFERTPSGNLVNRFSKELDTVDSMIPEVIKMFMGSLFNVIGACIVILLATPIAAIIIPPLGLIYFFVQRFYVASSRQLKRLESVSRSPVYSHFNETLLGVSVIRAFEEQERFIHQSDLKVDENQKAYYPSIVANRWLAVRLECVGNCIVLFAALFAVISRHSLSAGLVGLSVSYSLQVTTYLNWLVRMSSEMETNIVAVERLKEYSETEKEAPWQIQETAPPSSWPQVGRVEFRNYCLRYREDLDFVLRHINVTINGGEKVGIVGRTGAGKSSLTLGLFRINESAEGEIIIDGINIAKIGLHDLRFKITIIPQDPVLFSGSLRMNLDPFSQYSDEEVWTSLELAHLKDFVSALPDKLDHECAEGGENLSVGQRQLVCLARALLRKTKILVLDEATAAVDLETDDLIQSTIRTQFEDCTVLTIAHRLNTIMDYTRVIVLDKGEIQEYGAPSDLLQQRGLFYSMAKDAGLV
# [2] = molecular target: T1, Multidrug resistance-associated protein 1; assay: TP_TRANSPORTER: inhibition of Glutathione efflux (Indomethacin: 400 uM) in MRP1-expressing MDCKII cells
# [3] = molecular target: T1, Multidrug resistance-associated protein 1; assay: TP_TRANSPORTER: inhibition of Glutathione efflux (Sulfinpyrazone: 3200. uM) in MRP1-expressing MDCKII cells
# [4] = molecular target: ATP-binding cassette sub-family C member 2 (Homo sapiens, UniProt Q92887); assay: TP_TRANSPORTER: transepithelial transport (basal to apical) in MRP2-expressing MDCKII cells
# Sequence of ATP-binding cassette sub-family C member 2 (Q92887 whole entry): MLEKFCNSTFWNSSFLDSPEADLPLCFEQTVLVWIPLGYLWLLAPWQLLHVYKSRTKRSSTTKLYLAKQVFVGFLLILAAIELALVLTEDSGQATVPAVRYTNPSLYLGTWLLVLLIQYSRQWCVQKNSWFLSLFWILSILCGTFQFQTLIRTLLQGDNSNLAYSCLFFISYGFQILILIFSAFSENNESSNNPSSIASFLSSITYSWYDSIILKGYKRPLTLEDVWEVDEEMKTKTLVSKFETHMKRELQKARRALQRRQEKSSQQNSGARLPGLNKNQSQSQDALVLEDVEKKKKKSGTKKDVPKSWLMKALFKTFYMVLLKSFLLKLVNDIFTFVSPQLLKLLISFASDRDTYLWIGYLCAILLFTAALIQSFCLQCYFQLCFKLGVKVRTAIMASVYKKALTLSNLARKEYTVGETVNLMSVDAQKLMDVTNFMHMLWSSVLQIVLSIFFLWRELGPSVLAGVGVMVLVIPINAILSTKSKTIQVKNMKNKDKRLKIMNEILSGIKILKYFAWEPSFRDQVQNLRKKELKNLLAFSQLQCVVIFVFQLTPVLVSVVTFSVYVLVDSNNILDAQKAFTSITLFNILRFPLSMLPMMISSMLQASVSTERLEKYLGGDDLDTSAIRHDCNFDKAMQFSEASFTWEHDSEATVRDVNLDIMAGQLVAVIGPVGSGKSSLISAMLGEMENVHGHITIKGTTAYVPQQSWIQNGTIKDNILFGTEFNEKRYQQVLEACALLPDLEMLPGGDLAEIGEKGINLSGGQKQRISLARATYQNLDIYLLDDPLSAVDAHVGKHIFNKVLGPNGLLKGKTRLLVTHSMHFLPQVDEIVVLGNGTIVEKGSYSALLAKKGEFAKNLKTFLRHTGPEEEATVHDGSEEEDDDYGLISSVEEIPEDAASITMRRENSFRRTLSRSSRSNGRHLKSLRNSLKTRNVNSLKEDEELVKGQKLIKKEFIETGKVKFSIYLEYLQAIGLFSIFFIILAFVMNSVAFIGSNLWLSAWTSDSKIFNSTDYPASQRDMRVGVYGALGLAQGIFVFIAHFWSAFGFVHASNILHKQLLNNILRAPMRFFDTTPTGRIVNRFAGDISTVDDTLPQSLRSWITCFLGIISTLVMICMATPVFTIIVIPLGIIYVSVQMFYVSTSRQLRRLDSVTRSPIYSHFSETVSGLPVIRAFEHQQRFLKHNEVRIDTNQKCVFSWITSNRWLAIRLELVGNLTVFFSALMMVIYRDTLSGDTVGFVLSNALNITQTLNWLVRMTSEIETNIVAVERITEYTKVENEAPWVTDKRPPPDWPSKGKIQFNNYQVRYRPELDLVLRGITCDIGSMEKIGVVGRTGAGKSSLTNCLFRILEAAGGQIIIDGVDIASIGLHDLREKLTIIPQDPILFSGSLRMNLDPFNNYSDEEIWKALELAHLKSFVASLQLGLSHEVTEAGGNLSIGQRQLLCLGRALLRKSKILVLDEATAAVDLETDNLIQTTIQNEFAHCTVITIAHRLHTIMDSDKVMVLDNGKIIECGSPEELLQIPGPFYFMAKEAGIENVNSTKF
compound,measurement,setting,value
CCc1oc2ccccc2c1C(=O)c1cc(Br)c(O)c(Br)c1 [BENZBROMARONE],Activity,[1],inhibitor [+]
COc1ccc2c(c1)c(CC(=O)O)c(C)n2C(=O)c1ccc(Cl)cc1 [INDOMETHACIN],Activity,[2],inhibitor [+]
O=C1C(CC[S+]([O-])c2ccccc2)C(=O)N(c2ccccc2)N1c1ccccc1 (centres undefined) [SULFINPYRAZONE],Activity,[3],inhibitor [+]
same,Activity,[4],substrate [+]
